Reference: publication PMC6271131, “Inhibitory Effects of Colocasia esculenta (L.) Schott Constituents on Aldose Reductase” (Molecules, 2014)
Values after ≈ are worked out from the molar mass of the structure shown. Values joined by “and” are separate entries in the source; they are usually repeats but may differ in a detail not shown here. Identical values can stand only once. Like-named read-outs stand apart in the source and are kept apart here.

How the values were obtained:
[1] = ABTS^+ radical assay (antioxidant)
Protocol: The method of Re et al., [39] was used with slight modifications. ABTS diammonium salt (2 mM) and potassium persulfate (3.5 mM) were mixed, diluted in distilled water and kept in the dark at room temperature for 24 h before use. After addition of ABTS^+ solution to 10 µL of antioxidant compounds were recorded at after 10 min reaction. […] Trolox was used as positive control.

[2] = target: T1, rat lens aldose reductase (rAR) (Rattus norvegicus, UniProt P07943); assay: Rat lens aldose reductase (rAR) inhibition, DL-glyceraldehyde substrate, NADPH decrease at 340 nm; assay type: biochemical; conditions: for IC50: Table 2 experiment
T1 construct: The rat lens homogenate was prepared according to the method of Hayman and Kinoshita with some modifications; from tissue; host or cells: lenses of Sprague-Dawley rats (homogenate supernatant)
Protocol: The rat lens homogenate was prepared according to the method of Hayman and Kinoshita with some modifications. Non-cataractous transparent lenses were pooled and homogenate was prepared in 0.1 M phosphate buffer saline (pH 6.2). After centrifugation at 10,000 rpm for 20 min in a refrigerated centrifuge, the supernatant, which was then collected and as the rAR, all procedures were carried out at 4 °C.
Each 1.0 mL cuvette contained equal units of the enzyme, 0.10 M sodium phosphate buffer (pH 6.2), 0.3 mM NADPH, with or without 10 mM of the substrate and an inhibitor [10, 36].

rat erythrocyte = assay: Galactitol accumulation in rat erythrocytes incubated with galactose; assay type: cell-based; conditions: 30 mM galactose; for Rat Erythrocyte Galactitol Content: 5 µg/mL compound, control 86.70 ± 1.61; for decrease of galactitol accumulation in rat erythrocyte: 5 µg/mL
Protocol: Blood sample was collected in heparin containing polypropylene tube from 10-week-old male rats. For sugar and sugar alcohol analysis, erythrocytes from heparinized blood were separated from the plasma and buffy coat by centrifuging at 2000× g for 10 min. The cells were washed thrice with normal saline (0.9% NaCl) at 4 °C. In the final washing, the cells were centrifuged at 2000× g for 10 min to obtain a consistently packed cell preparation. The packed cells (1 mL) were then incubated in a Krebs-Ringer bicarbonate buffer (pH 7.4) containing 30 mM galactose in the presence or absence of samples at 37 °C in 5% CO2 for 3 h. The erythrocytes were washed with cold saline by centrifuging at 2000× g for 10 min, precipitated by adding 6% of cold perchloric acid (3 mL), and centrifuged again at 2000× g for 10 min. The supernatant was neutralized with 2.5 M K2CO3 at 4 °C and used for galactitol determination. HPLC analysis for sugar and sugar alcohol in blood was performed with this supernatant of red blood cell homogenate after being benzoylated.

rat lenses = assay: Galactitol accumulation in cultured isolated rat lenses (ex vivo); assay type: cell-based; conditions: for Galactitol Content µg/lens Wet Weight (g): 5 µg/mL compound, control 250.47 ± 5.01; for inhibition at 5 µg/mL: Rattus norvegicus, 144 h, read-out: inhibition of galactitol accumulation in isolated rat lenses; for effect on polyol accumulation in rat lenses: conclusion statement
Protocol: Lenses isolated from 10-week-old male rats were cultured for 6 days in TC-199 medium that contained 15% fetal bovine serum 100 units/mL penicillin and 0.1 mg/mL streptomycin under sterile conditions in an atmosphere of 5% CO2 and 95% air at 37 °C. Samples were dissolved in dimethyl sulfoxide. The lenses were divided into five groups and cultured in medium containing 5 mM glucose, 30 mM galactose and rosmarinic acid or caffeic acid ethylene ester. Each lens was placed in well containing 1.0 mL of medium. Galactitol was determined by HPLC after its derivatization by reaction with benzoic acid to a fluorescent compound [37].

[3] = target: T2, recombinant human aldose reductase (rhAR) (Homo sapiens, UniProt P15121); assay: Kinetic analysis of aldose reductase inhibition (Lineweaver-Burk plots); assay type: biochemical; conditions: for type of inhibition: Lineweaver-Burk plots, Km unchanged, Vmax decreased; for Ki: from secondary Lineweaver-Burk plots, DL-glyceraldehyde 0.1-1 mM, read-out: inhibitory constant (Ki)
T2 construct: purchased Wako Pure Chemical Industries (Osaka, Japan)
Protocol: Reaction mixtures consisted of 0.1 M potassium phosphate, 0.16 mM NADPH, […] of recombinant human aldose reductase (rhAR) with varied concentrations of substrate DL-glyceraldehyde and AR inhibitor in a total volume of 200 µL. Concentrations were ranged from 0.1 to 1 mM for DL-glyceraldehyde, from 0.1 to 1 mM for active compound. Recombinant human aldose reductase activity was assayed spectrophotometrically by measuring the decrease in absorption of NADPH at 340 nm after substrate addition using a Bio Tek Power Wave XS spectrophotometer (Bio Tek Instruments, Winooski, VT, USA).

[4] = Table 2, read-out: Inhibition (%) of rAR
[5] = read-out: IC50 (rAR), isolated constituents (converted)
[6] = 5 µg/mL, 30 mM galactose, 6 days
[7] = Table 1, read-out: Aldose Reductase Inhibition (%)

IC50 ([1]; Table 5) [µM]	IC50 (ABTS^+) ([1]; Table 5) [µg/mL]	IC50 [2, 5]	SMILES	Inhibition (%) of ABTS^+ ([1]; Table 5, 16.67 µg/mL) [%]	inhibition at 10 µg/mL ([2]; Table 2) [%]	Inhibition (%) of ABTS^+ ([1]; Table 5, 1.67 µg/mL) [%]	Inhibition (%) of ABTS^+ ([1]; Table 5, 3.33 µg/mL) [%]	Inhibition (%) of ABTS^+ ([1]; Table 5, 8.33 µg/mL) [%]	inhibition at 0.5 µg/mL [2, 4] [%]	inhibition at 1 µg/mL [2, 4] [%]	inhibition at 5 µg/mL ([2]; Table 2) [%]	also measured
–	–	–	N[C@@H](Cc1c[nH]c2ccccc12)C(=O)O [Compound 1, tryptophan]	37.51 ± 2.93	20 ± 2.01	–	–	–	–	–	–	–
–	–	–	O=c1cc(-c2ccc(O)cc2)oc2c([C@@H]3O[C@H](CO)[C@@H](O)[C@H](O)[C@H]3O)c(O)cc(O)c12 [Compound 4, vitexin]	46.17 ± 2.65	48.5 ± 0.87	–	–	–	–	–	–	–
17.8 ± 1.51	8.00 ± 0.68 (≈ 17.8 µM)	7.47 µM	O=c1cc(-c2ccc(O)c(O)c2)oc2cc(O[C@@H]3O[C@H](CO)[C@@H](O)[C@H](O)[C@H]3O)cc(O)c12 [Compound 6, luteolin-7-O-glucoside]	–	76.2 ± 0.77	13.49 ± 1.09	22.66 ± 2.47	52.11 ± 3.98	–	19.1 ± 0.21	61.88 ± 0.6	–
15.8 ± 0.8	9.38 ± 0.47 (≈ 15.8 µM)	2.59 µM	C[C@@H]1O[C@@H](OC[C@H]2O[C@@H](Oc3cc(O)c4c(=O)cc(-c5ccc(O)c(O)c5)oc4c3)[C@H](O)[C@@H](O)[C@@H]2O)[C@H](O)[C@H](O)[C@H]1O [Compound 7, luteolin-7-O-rutinoside]	79.82 ± 0.67	–	–	21.44 ± 1.46	49.55 ± 3.91	29.9 ± 0.3	40.31 ± 0.4	72.7 ± 0.73	–
19.2 ± 1.69	6.91 ± 0.61 (≈ 19.2 µM)	–	O=C(/C=C/c1ccc(O)c(O)c1)O[C@H](Cc1ccc(O)c(O)c1)C(=O)O [Compound 8, rosmarinic acid]	–	–	16.20 ± 3.85	23.61 ± 2.27	60.25 ± 4.66	18.3 ± 0.19	62.79 ± 0.6	87.33 ± 0.87	–
37.4 ± 0.64	13.31 ± 0.23 (≈ 37.4 µM)	–	COc1cc(C=CC(=O)OC2OC(CO)C(O)C(O)C2O)ccc1O [Compound 9, 1-O-feruloyl-D-glucoside]	59.10 ± 2.55	4.06 ± 0.4	–	13.51 ± 1.62	35.36 ± 1.54	–	–	–	–
23.5 ± 1.43	8.04 ± 0.49 (≈ 23.5 µM)	14.1 µM	O=C(C=Cc1ccc(O)c(O)c1)OC1OC(CO)C(O)C(O)C1O [Compound 10, 1-O-caffeoyl-D-glucoside]	–	73.2 ± 0.99	14.07 ± 0.39	29.84 ± 1.19	50.87 ± 1.30	–	–	55.6 ± 0.78	inhibition at 2.5 µg/mL [2, 4]: 24.7 ± 0.36%
–	–	–	O=c1c(O)c(-c2ccc(O)c(O)c2)oc2cc(O)cc(O)c12 [Quercetin, quercetin, reference compound]	–	–	–	–	–	26.3 ± 0.59	48.6 ± 1.44	81.14 ± 0.81	IC50 ([1]; Table 4): 3.2 ± 0.12 µM; IC50 (ABTS^+) ([1]; Table 4): 0.97 ± 0.04 µg/mL (≈ 3.21 µM); Inhibition (%) of ABTS^+ ([1]; Table 4, 0.33 µg/mL): 22.98 ± 3.55%; Inhibition (%) of ABTS^+ ([1]; Table 4, 0.83 µg/mL): 42.49 ± 3.39%; Inhibition (%) of ABTS^+ ([1]; Table 4, 1.67 µg/mL): 81.36 ± 1.75%; inhibition at 0.5 µg/mL [2, 7]: 31.62 ± 0.09%; inhibition at 1 µg/mL [2, 7]: 48.9 ± 0.51%; inhibition at 2.5 µg/mL [2, 7]: 69.6 ± 0.72%; Rat Erythrocyte Galactitol Content (rat erythrocyte): 45.17 ± 0.81 µM; decrease of galactitol accumulation in rat erythrocyte (rat erythrocyte): 47.9%; Galactitol Content µg/lens Wet Weight (g) (rat lenses; 30 mM galactose, 6 days): 241.07 ± 4.57 µg/lens Wet Weight (g); inhibition at 5 µg/mL (rat lenses; [6]): 3.8%
–	–	–	Cc1c(C)c2c(c(C)c1O)CCC(C)(C(=O)O)O2 (stereo not drawn) [Trolox, reference compound]	–	–	–	–	–	–	–	–	IC50 ([1]; Table 4): 11.49 ± 0.04 µM; IC50 (ABTS^+) ([1]; Table 4): 2.87 ± 0.01 µg/mL (≈ 11.5 µM); Inhibition (%) of ABTS^+ ([1]; Table 4, 1.67 µg/mL): 27.07 ± 1.15%; Inhibition (%) of ABTS^+ ([1]; Table 4, 3.33 µg/mL): 57.40 ± 2.03%; Inhibition (%) of ABTS^+ ([1]; Table 4, 8.33 µg/mL): 92.92 ± 0.06%

SMILES	IC50 ([1]; Table 5) [µM]	IC50 (ABTS^+) ([1]; Table 5) [µg/mL]	IC50 [2, 5]	Inhibition (%) of ABTS^+ ([1]; Table 5, 16.67 µg/mL) [%]	inhibition at 10 µg/mL ([2]; Table 2) [%]	Inhibition (%) of ABTS^+ ([1]; Table 5, 1.67 µg/mL) [%]	Inhibition (%) of ABTS^+ ([1]; Table 5, 3.33 µg/mL) [%]	Inhibition (%) of ABTS^+ ([1]; Table 5, 8.33 µg/mL) [%]	inhibition at 0.5 µg/mL [2, 4] [%]	inhibition at 1 µg/mL [2, 4] [%]	inhibition at 5 µg/mL ([2]; Table 2) [%]	also measured
O=c1cc(-c2ccc(O)c(O)c2)oc2c([C@@H]3O[C@H](CO)[C@@H](O)[C@H](O)[C@H]3O)c(O)cc(O)c12 [Compound 2, orientin]	12.5 ± 0.95	5.59 ± 0.42 (≈ 12.5 µM)	1.65 µM	–	–	17.56 ± 2.21	31.76 ± 3.19	72.55 ± 4.10	35.3 ± 0.36	64.57 ± 0.52	94 ± 0.98	Rat Erythrocyte Galactitol Content (rat erythrocyte): 72.72 ± 0.98 µM; decrease of galactitol accumulation in rat erythrocyte (rat erythrocyte): 16.1%; Galactitol Content µg/lens Wet Weight (g) (rat lenses; 30 mM galactose, 6 days): 227.89 ± 4.52 µg/lens Wet Weight (g); inhibition at 5 µg/mL (rat lenses): 9.1%; effect on polyol accumulation in rat lenses (rat lenses): prevented the accumulation of sorbitol in rat lenses; type of inhibition [3]: noncompetitive inhibitors; Ki [3]: 3.23 µM
O=c1cc(-c2ccc(O)c(O)c2)oc2cc(O)c([C@@H]3O[C@H](CO)[C@@H](O)[C@H](O)[C@H]3O)c(O)c12 [Compound 3, isoorientin]	14.6 ± 1.18	6.53 ± 0.53 (≈ 14.6 µM)	–	–	–	17.87 ± 3.08	31.69 ± 4.94	60.92 ± 2.81	37.23 ± 0.37	57.6 ± 0.58	77.73 ± 0.77	IC50 ([2]; IC50 (rAR), isolated constituents): 1.92 µM; Rat Erythrocyte Galactitol Content (rat erythrocyte): 56.18 ± 1.00 µM; decrease of galactitol accumulation in rat erythrocyte (rat erythrocyte): 35.2%; Galactitol Content µg/lens Wet Weight (g) (rat lenses; 30 mM galactose, 6 days): 243.14 ± 4.71 µg/lens Wet Weight (g); inhibition at 5 µg/mL (rat lenses; [6]): 2.7%; effect on polyol accumulation in rat lenses (rat lenses): prevented the accumulation of sorbitol in rat lenses; type of inhibition [3]: noncompetitive inhibitors; Ki [3]: 5.88 µM
O=c1cc(-c2ccc(O)cc2)oc2cc(O)c([C@@H]3O[C@H](CO)[C@@H](O)[C@H](O)[C@H]3O)c(O)c12 [Compound 5, isovitexin]	–	–	7.35 µM and 7.36 µM	44.40 ± 4.91	76.59 ± 0.74	–	–	–	–	23.3 ± 0.25	60.3 ± 0.61	–
